“Also recorded” adds a separate entry of the source. Like-named read-outs stand apart in the source and are kept apart here.
Tests used:
[1] = system: VSV; assay: microbe, parasite or virus in culture; assay type: cell-based; conditions: Vesicular stomatitis virus, HEK-293T, read-out: VSV (μM) (negative control)
[2] = system: Guanarito; assay: microbe, parasite or virus in culture; assay type: cell-based; conditions: Mammarenavirus guanaritoense, HEK-293T, read-out: Antiviral activity vs. pseudotyped viruses: Guanarito
[3] = system: Tacaribe; assay: microbe, parasite or virus in culture; assay type: cell-based; conditions: Mammarenavirus tacaribeense, HEK-293T, read-out: Antiviral activity vs. pseudotyped viruses: Tacaribe
[4] = system: Machupo; assay: microbe, parasite or virus in culture; assay type: cell-based; conditions: Mammarenavirus machupoense, HEK-293T, read-out: Antiviral activity vs. pseudotyped viruses: Machupo
[5] = system: drug resistant Tacaribe mutants; assay type: cell-based, Tacaribe virus
[6] = system: Junín; assay type: cell-based, Junin virus; conditions: read-out: Junin (Plaque reduction) EC50
[7] = system: icd-GPC; assay type: binding, Junin virus
[8] = system: Tacaribe virus; assay: microbe, parasite or virus in culture; assay type: cell-based
[9] = system: Guanarito; assay type: cell-based, Guanarito virus; conditions: read-out: Guanarito (Plaque reduction) EC50
[10] = system: Tacaribe virus; assay type: cell-based; conditions: read-out: Tacaribe (Plaque reduction) EC50
[11] = in vivo
[12] = system: Tacaribe virus; design: species or system BALB/c mice; conditions: mouse, in vivo
[13] = mouse, in vivo, ip, 100 mg/kg/day
[14] = system: S. typhimurium tester strains TA7007 and TA7006 and TA98
[15] = system: Machupo; assay type: cell-based, Machupo virus; conditions: read-out: Machupo (Plaque reduction) EC50
[16] = in vivo; remark: listed apart in the source
[17] = system: Vero cells
[18] = system: Junín; assay: microbe, parasite or virus in culture; assay type: cell-based, Junin virus; conditions: Mammarenavirus juninense, HEK-293T, read-out: Antiviral activity vs. pseudotyped viruses: Junín
[19] = biological target: JUNV GPC (Junin mammarenavirus, UniProt P26313); assay: cell-based; design: species or system Junin virus
Chain of JUNV GPC (P26313 2-58 limits assumed): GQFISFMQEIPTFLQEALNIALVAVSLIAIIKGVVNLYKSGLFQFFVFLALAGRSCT
Chain of JUNV GPC (P26313 59-251 partner limits assumed): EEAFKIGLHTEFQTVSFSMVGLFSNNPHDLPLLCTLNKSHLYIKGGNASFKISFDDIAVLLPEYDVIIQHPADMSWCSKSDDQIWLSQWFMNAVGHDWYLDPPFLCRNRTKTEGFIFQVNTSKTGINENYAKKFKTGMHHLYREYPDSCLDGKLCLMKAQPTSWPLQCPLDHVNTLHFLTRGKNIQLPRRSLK
Chain of JUNV GPC (P26313 252-485 limits assumed): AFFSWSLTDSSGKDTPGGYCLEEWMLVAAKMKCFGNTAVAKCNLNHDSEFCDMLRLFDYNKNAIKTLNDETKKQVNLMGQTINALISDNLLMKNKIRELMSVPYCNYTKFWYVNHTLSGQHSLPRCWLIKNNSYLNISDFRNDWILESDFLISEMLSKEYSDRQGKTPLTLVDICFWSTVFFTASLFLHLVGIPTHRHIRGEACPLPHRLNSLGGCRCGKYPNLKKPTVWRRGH

[20] = system: icd-GPC; assay type: binding, Junin virus; remark: listed apart in the source

Molecule | EC50 [1] [µM] | EC50 [2] [nM] | EC50 [3] [nM] | EC50 [4] [nM] | other results
CCC(NC(=O)NNS(=O)(=O)c1ccc2ccccc2c1)(C(F)(F)F)C(F)(F)F [Compound 102, 1-[1,1-bis(trifluoromethyl)propyl]-3-(2-naphthylsulfonylamino)urea] | > 20 | < 1000 | < 1000 | < 1000 | –
N-2-(1,1,1,3,3,3-hexafluoro-1-methylpropyl)-2-[(4-difluoromethoxyphenyl)sulfonyl]hydrazine-1-carboxamide [ST-294] | – | – | – | – | susceptibility of ST-336 drug resistant Tacaribe variants [5]: all of the mutants elicited cross-resistance; EC50 [6]: 300 nM; displacement of bound ST-375 from icd-GPC [7]: displaced from icd-GPC in a time- and concentration-dependent manner; Tacaribe virus CPE EC50 [8]: 0.066 µg/mL; EC50 ([8]; read-out: Tacaribe (CPE) EC50): 120 nM; EC50 [9]: 1000 nM; EC50 [10]: 100 nM; PK (newborn mouse/IP) Cmax [11]: 2910 ng/mL; PK (newborn mouse/IP) ½ life [11]: 3 h; efficacy (survival) in Tacaribe infected newborn mice [12]: both survival and a delay in death similar to the drug control; also recorded: significant protection against Tacaribe virus induced disease; tolerability [13]: well tolerated; Genotoxicity (Ames test) [14]: negative; EC50 [15]: 300 nM; PK (rat/oral) ½ life [16]: 2 h; Cmax (serum levels) ([16]; rat, po): 6670 ng/mL; CC50 [17]: > 50000 nM
CCC(NC(=O)NNS(=O)(=O)c1ccc(C(C)(C)C)cc1)(C(F)(F)F)C(F)(F)F [Compound 100, 1-[1,1-bis(trifluoromethyl)propyl]-3-[(4-tert-butylphenyl)sulfonylamino]urea] | 19.7 | < 1000 | < 1000 | < 1000 | –
CCC(NC(=O)NNS(=O)(=O)c1ccc(-c2csnn2)cc1)(C(F)(F)F)C(F)(F)F [Compound 114, 1-[1,1-bis(trifluoromethyl)propyl]-3-[[4-(thiadiazol-4-yl)phenyl]sulfonylamino]urea] | > 30 | < 1000 | < 1000 | < 1000 | EC50 [18]: < 1000 nM
CCC(NC(=O)NNS(=O)(=O)c1cc(OC)ccc1OC)(C(F)(F)F)C(F)(F)F [Compound 101, 1-[1,1-bis(trifluoromethyl)propyl]-3-[(2,5-dimethoxyphenyl)sulfonylamino] urea] | > 30 | < 1000 | < 1000 | < 1000 | –
CCC(NC(=O)NNS(=O)(=O)c1cc(C)cc(C)c1)(C(F)(F)F)C(F)(F)F [Compound 109, 1-[1,1-bis(trifluoromethyl)propyl]-3-[(3,5-dimethylphenyl)sulfonylamino] urea] | > 30 | < 10000 | < 1000 | < 10000 | –
CCC(NC(=O)NNS(=O)(=O)c1cccc2ccccc12)(C(F)(F)F)C(F)(F)F [Compound 111, 1-[1,1-bis(trifluoromethyl)propyl]-3-(1-naphthylsulfonylamino)urea] | > 30 | < 1000 | < 1000 | < 1000 | –
CCC(NC(=O)NNS(=O)(=O)c1cccc2c(N(C)C)cccc12)(C(F)(F)F)C(F)(F)F [Compound 110, 1-[1,1-bis(trifluoromethyl)propyl]-3-[[5-(dimethylamino)-1-naphthyl]sulfonylamino]urea] | > 30 | < 10000 | < 1000 | < 1000 | EC50 [19]: 600 nM; dansyl fluorescence at 525 nm on binding to solubilized icd-GPC [20]: increase in a time-dependent manner; EC50 [18]: < 1000 nM
CCC(NC(=O)NNS(=O)(=O)c1cc(Cl)ccc1OC)(C(F)(F)F)C(F)(F)F [Compound 104, 1-[1,1-bis(trifluoromethyl)propyl]-3-[(5-chloro-2-methoxy-phenyl)sulfonylamino]urea] | > 30 | < 1000 | < 1000 | < 1000 | –
CCC(NC(=O)NNS(=O)(=O)c1ccc2c(c1)OCCN2C)(C(F)(F)F)C(F)(F)F [Compound 112, 1-[1,1-bis(trifluoromethyl)propyl]-3-[(4-methyl-2,3-dihydro-1,4-benzoxazin-7-yl)sulfonylamino] urea] | > 30 | < 10000 | < 1000 | < 1000 | –
CCC(NC(=O)NNS(=O)(=O)c1ccc(-c2ccccc2)cc1)(C(F)(F)F)C(F)(F)F [Compound 116, 1-[1,1-bis(trifluoromethyl)propyl]-3-[(4-phenylphenyl)sulfonylamino] urea] | > 20 | < 10000 | < 1000 | < 1000 | –
CCC(NC(=O)NNS(=O)(=O)c1c(C)cc(C)cc1C)(C(F)(F)F)C(F)(F)F [Compound 99, 1-[1,1-bis(trifluoromethyl)propyl]-3-[(2,4,6-trimethylphenyl)sulfonylamino] urea] | > 30 | < 1000 | < 1000 | < 1000 | –
CCC(NC(=O)NNS(=O)(=O)c1ccc(Cl)c(Cl)c1)(C(F)(F)F)C(F)(F)F [Compound 106, 1-[1,1-bis(trifluoromethyl)propyl]-3-[(3,4-dichlorophenyl)sulfonylamino]urea] | > 30 | < 1000 | < 1000 | < 1000 | –
CCC(NC(=O)NNS(=O)(=O)c1cc(OCC(F)(F)F)ccc1OCC(F)(F)F)(C(F)(F)F)C(F)(F)F [Compound 113, 1-[[2,5-bis(2,2,2-trifluoroethoxy)phenyl]sulfonyl-amino]-3-[1,1-bis(trifluoromethyl)propyl]urea] | 21 | < 1000 | < 1000 | < 1000 | –
CCC(NC(=O)NNS(=O)(=O)c1ccc(Br)cc1)(C(F)(F)F)C(F)(F)F [Compound 107, 1-[1,1-bis(trifluoromethyl)propyl]-3-[(4-bromophenyl)sulfonylamino] urea] | > 30 | < 1000 | < 1000 | < 1000 | –
CCC(NC(=O)NNS(=O)(=O)c1ccc(C(C)C)cc1)(C(F)(F)F)C(F)(F)F [Compound 103, 1-[1,1-bis(trifluoromethyl)propyl]-3-[(4-isopropylphenyl)sulfonylamino] urea] | > 20 | < 1000 | < 1000 | < 1000 | –
CCC(NC(=O)NNS(=O)(=O)c1ccc(OC(F)F)cc1)(C(F)(F)F)C(F)(F)F [Compound 108, 1-[1,1-bis(trifluoromethyl)propyl]-3-[[4-(difluoromethoxy)phenyl]sulfonyl-amino]urea] | – | – | – | – | EC50 ([8]; Mammarenavirus tacaribeense, Vero, read-out: Tacaribe (result of cytopathic effect assay)): < 1000 nM
COc1ccc(-n2cnc3cc(NCc4ccc(C(C)C)cc4)ccc32)cc1 [ST-193, reference compound] | – | – | – | – | displacement of bound ST-375 from icd-GPC [7]: displaced from icd-GPC in a time- and concentration-dependent manner
CCC(NC(=O)NNS(=O)(=O)c1cc(Br)ccc1OC)(C(F)(F)F)C(F)(F)F [Compound 115, 1-[1,1-bis(trifluoromethyl)propyl]-3-[(5-bromo-2-methoxy-phenyl)sulfonylamino]urea] | > 30 | < 1000 | < 1000 | < 1000 | –
CCC(NC(=O)NNS(=O)(=O)c1ccccc1-c1ccccc1)(C(F)(F)F)C(F)(F)F [Compound 105, 1-[1,1-bis(trifluoromethyl)propyl]-3-[(2-phenylphenyl)sulfonylamino] urea] | > 30 | < 1000 | < 1000 | < 1000 | –
CC(NC(=O)Nc1ccccc1C(F)(F)F)(C(F)(F)F)C(F)(F)F [Example 97, 1-(2-Trifluoromethylphenyl)-3-(2,2,2-trifluoro-1-methyl-1-trifluoromethylethyl)-urea] | – | – | – | – | EC50 ([8]; Mammarenavirus tacaribeense, Vero, read-out: Tacaribe EC50): > 5000 nM
